One data set concerns MDA-MB-231. As to the kind of experiment: Antiproliferative activity against human MDA-MB-231 cells assessed as reduction in cell viability incubated for 96 hrs by MTT assay. The settings on record: MDA-MB-231, 96 h.
In another data set the test system is A549. As to the kind of experiment: Antiproliferative activity against human A549 cells assessed as reduction in cell viability incubated for 96 hrs by MTT assay. The settings on record: A549, 96 h. (Formazan colour is commonly taken as a measure of viable cells.)
A short description of data set [1]: Cytotoxicity against human L02 cells assessed as reduction in cell viability incubated for 96 hrs by MTT assay. The format is toxicity, cell-based.
The next data set relates to MCF7. As to the kind of experiment: Antiproliferative activity against human MCF7 cells assessed as reduction in cell viability incubated for 96 hrs by MTT assay. The settings on record: MCF7, 96 h.
Another data set concerns MDA-MB-468. As to the kind of experiment: Antiproliferative activity against human MDA-MB-468 cells assessed as reduction in cell viability incubated for 96 hrs by MTT assay. The settings on record: MDA-MB-468, 96 h.

A value given as a limit tells only on which side of the number the result lay.

The term IC50 denotes the concentration needed to halve the response being measured. With `CCC(=O)NC(Nc1nc(Nc2ccc(C(F)(F)F)cc2Cl)c2cc[nH]c2n1)C(Cl)(Cl)Cl` (stereo not given), the IC50 with MDA-MB-231 was 12.7 µM; in the data set with A549 it was 6.92 µM; with MCF7 it was 17.7 µM; in the data set on MDA-MB-468, over 20 µM. For the same molecule, the half-inhibitory concentration (IC50) at 96 h in data set [1] came out at 14.5 µM.

In the case of `CCC(=O)NC(Nc1nc(Nc2cc(F)c(OC)c(F)c2)c2cc[nH]c2n1)C(Cl)(Cl)Cl` (stereo not given), the IC50 with MDA-MB-231 is 8.07 µM; in the data set on A549, 8.79 µM; with MCF7, 7.2 µM; in the data set with MDA-MB-468, 10.4 µM. In addition, the 50% inhibitory concentration (IC50) at 96 h in data set [1] stood at 14.5 µM.

For `CCCc1ccc(Nc2nc(NC(NC(=O)CC)C(Cl)(Cl)Cl)nc3[nH]ccc23)cc1` (stereo not given), the IC50 with MDA-MB-231, in the data set with A549, in the data set on MCF7 and in the data set on MDA-MB-468 was over 20 µM each time. Further, the IC50 at 96 h in data set [1] is over 20 µM.

`CCC(=O)NC(Nc1nc(Nc2ccc(OC)cc2)c2cc[nH]c2n1)C(Cl)(Cl)Cl` (stereo not given): the half-maximal inhibitory concentration (IC50) in the data set with MDA-MB-231, in the data set with A549, in the data set on MCF7 and with MDA-MB-468 was over 20 µM each time. For the same molecule, the half-maximal inhibitory concentration (IC50) at 96 h in data set [1] was over 20 µM.

In the case of `CCC(=O)NC(Nc1nc(Nc2ccc(OC(F)(F)F)c(F)c2)c2cc[nH]c2n1)C(Cl)(Cl)Cl` (stereo not given), the IC50 in the data set with MDA-MB-231 is 10.1 µM; with A549, 7.52 µM; with MCF7 it was 9.27 µM; in the data set with MDA-MB-468 it was over 20 µM. Moreover, the IC50 at 96 h in data set [1] is 7.55 µM.

`COc1cc(Nc2nc(NC(NC(=O)C3CCCCC3)C(Cl)(Cl)Cl)nc3[nH]ccc23)cc(OC)c1` (stereo not given): the half-inhibitory concentration (IC50) with MDA-MB-231, with A549, with MCF7 and with MDA-MB-468 was over 20 µM throughout. The IC50 at 96 h in data set [1] was over 20 µM.

On to `CCCC(=O)NC(Nc1nc(Nc2cc(OC)cc(OC)c2)c2cc[nH]c2n1)C(Cl)(Cl)Cl` (stereo not given), for which the IC50 with MDA-MB-231, in the data set with A549, in the data set on MCF7 and in the data set with MDA-MB-468 was over 20 µM in each case. In data set [1], the half-maximal inhibitory concentration (IC50) at 96 h was over 20 µM.

As to `CCC(=O)NC(Nc1nc(Nc2ccc(OC(F)(F)F)cc2)c2cc[nH]c2n1)C(Cl)(Cl)Cl` (stereo not given), the IC50 is 16.1 µM with MDA-MB-231, 11.3 µM in the data set on A549, 11.8 µM in the data set with MCF7 and 18.1 µM in the data set with MDA-MB-468. The IC50 at 96 h in data set [1] came to 25.3 µM.

With `CCC(=O)NC(n1cnc2c(Nc3ccc(OC)cc3)nc(N)nc21)C(Cl)(Cl)Cl` (stereo not given), the IC50 with MDA-MB-231, in the data set with A549, in the data set with MCF7 and in the data set on MDA-MB-468 was over 20 µM each time. Besides, the half-inhibitory concentration (IC50) at 96 h in data set [1] was over 20 µM.

On to `CCC(=O)NC(n1cnc2c(Nc3ccc(OC)c(Cl)c3)nc(N)nc21)C(Cl)(Cl)Cl` (stereo not given), for which the half-maximal inhibitory concentration (IC50) in the data set with MDA-MB-231, in the data set on A549, in the data set on MCF7 and in the data set on MDA-MB-468 was over 20 µM each time. Further, the IC50 at 96 h in data set [1] is over 20 µM.

Regarding `CCC(=O)NC(Nc1nc(Nc2ccc(OC)c(OC)c2)c2cc[nH]c2n1)C(Cl)(Cl)Cl` (stereo not given), the half-maximal inhibitory concentration (IC50) with MDA-MB-231, with A549, with MCF7 and in the data set with MDA-MB-468 was over 20 µM throughout. Besides, in data set [1], the IC50 at 96 h is over 20 µM.

With `CCCC(=O)NC(Nc1nc(Nc2cc(OC)c(OC)c(OC)c2)c2cc[nH]c2n1)C(Cl)(Cl)Cl` (stereo not given), the concentration for half-maximal inhibition (IC50) in the data set on MDA-MB-231 was 9.91 µM; in the data set on A549, over 20 µM; in the data set on MCF7 it was 19.6 µM; with MDA-MB-468, 17.2 µM. In addition, in data set [1], the IC50 at 96 h was 14.4 µM.

As for `CCCCC(=O)NC(Nc1nc(Nc2ccc(C(F)(F)F)cc2)c2cc[nH]c2n1)C(Cl)(Cl)Cl` (stereo not given), the IC50 with MDA-MB-231 was 7.36 µM; with A549 it was 7.26 µM; in the data set on MCF7, 7.58 µM; in the data set on MDA-MB-468, 13.2 µM. Further, the IC50 at 96 h in data set [1] came to 8.85 µM.

Consider `CCC(=O)NC(Nc1nc(Nc2ccc(C(F)(F)F)cc2F)c2cc[nH]c2n1)C(Cl)(Cl)Cl` (stereo not given), for which the IC50 came out at 12.6 µM in the data set with MDA-MB-231, 11.2 µM with A549, 13.6 µM with MCF7 and 14.1 µM in the data set on MDA-MB-468. The IC50 at 96 h in data set [1] is 14 µM.

In the case of `CCC(=O)NC(Nc1nc(Nc2ccc3scnc3c2)c2cc[nH]c2n1)C(Cl)(Cl)Cl` (stereo not given), the IC50 with MDA-MB-231, in the data set with A549, with MCF7 and with MDA-MB-468 was over 20 µM each time. In data set [1], the IC50 at 96 h is over 20 µM.

Take `CCC(=O)NC(Nc1nc(Nc2cc(OC)cc(OC)c2)c2cc[nH]c2n1)C(Cl)(Cl)Cl` (stereo not given): the IC50 in the data set on MDA-MB-231, in the data set on A549, in the data set on MCF7 and in the data set on MDA-MB-468 was over 20 µM in each case. Besides, the half-maximal inhibitory concentration (IC50) at 96 h in data set [1] is over 20 µM.

In the case of `CCCCCC(=O)NC(Nc1nc(Nc2cc(OC)c(OC)c(OC)c2)c2cc[nH]c2n1)C(Cl)(Cl)Cl` (stereo not given), the IC50 in the data set with MDA-MB-231 came out at 8.25 µM; in the data set on A549 it was 10.8 µM; in the data set on MCF7, 16.7 µM; in the data set with MDA-MB-468, 15.2 µM. In data set [1], the IC50 at 96 h is 12.3 µM.

Regarding `CCCCC(=O)NC(Nc1nc(Nc2cc(OC)cc(OC)c2)c2cc[nH]c2n1)C(Cl)(Cl)Cl` (stereo not given), the half-inhibitory concentration (IC50) in the data set with MDA-MB-231, with A549, in the data set on MCF7 and in the data set on MDA-MB-468 was over 20 µM throughout. Further, in data set [1], the half-inhibitory concentration (IC50) at 96 h was over 20 µM.

`CCC(=O)NC(n1cnc2c(Nc3ccc(C(F)(F)F)cc3)nc(N)nc21)C(Cl)(Cl)Cl` (stereo not given): the IC50 came to 9.56 µM with MDA-MB-231, 10.4 µM in the data set on A549, 10.2 µM in the data set with MCF7 and 11.3 µM in the data set with MDA-MB-468. For the same molecule, in data set [1], the IC50 at 96 h was 12.3 µM.

Take `CCC(=O)NC(Nc1nc(Nc2ccc(C(F)(F)F)cc2)c2cc[nH]c2n1)C(Cl)(Cl)Cl` (stereo not given): the IC50 was 7.79 µM in the data set with MDA-MB-231, 7.98 µM in the data set with A549, 6.21 µM with MCF7 and 10.1 µM in the data set with MDA-MB-468. In addition, the IC50 at 96 h in data set [1] was 12.8 µM.

Regarding `O=C(NC(Nc1nc(Nc2ccc(C(F)(F)F)cc2)c2cc[nH]c2n1)C(Cl)(Cl)Cl)C1CC1` (stereo not given), the IC50 stood at 5.97 µM with MDA-MB-231, 6.66 µM in the data set on A549, 6.71 µM with MCF7 and 10.2 µM in the data set on MDA-MB-468. In addition, the half-maximal inhibitory concentration (IC50) at 96 h in data set [1] was determined as 16.1 µM.

`O=C(NC(Nc1nc(Nc2ccc(C(F)(F)F)cc2)c2cc[nH]c2n1)C(Cl)(Cl)Cl)C1CCCCC1` (stereo not given): the concentration for half-maximal inhibition (IC50) in the data set with MDA-MB-231 was found to be 8.69 µM; with A549, 9.3 µM; in the data set on MCF7, 8.17 µM; in the data set on MDA-MB-468, 9.15 µM. In addition, the IC50 at 96 h in data set [1] was found to be 11.6 µM.

For the molecule `CCCCC(=O)NC(Nc1nc(Nc2cc(OC)c(OC)c(OC)c2)c2cc[nH]c2n1)C(Cl)(Cl)Cl` (stereo not given), the IC50 in the data set on MDA-MB-231 was 10.5 µM; in the data set with A549 it was 14.3 µM; with MCF7 it was 19.4 µM; with MDA-MB-468 it was over 20 µM. The IC50 at 96 h in data set [1] was over 20 µM.

With `CCC(=O)NC(Nc1nc(Nc2ccc(C(F)(F)F)nc2)c2cc[nH]c2n1)C(Cl)(Cl)Cl` (stereo not given), the IC50 was 19.8 µM with MDA-MB-231, over 20 µM in the data set with A549, over 20 µM with MCF7 and over 20 µM in the data set on MDA-MB-468. The IC50 at 96 h in data set [1] was over 20 µM.

As for `CCCC(=O)NC(Nc1nc(Nc2ccc(C(F)(F)F)cc2)c2cc[nH]c2n1)C(Cl)(Cl)Cl` (stereo not given), the concentration for half-maximal inhibition (IC50) in the data set on MDA-MB-231 came out at 7.32 µM; with A549, 7.32 µM; in the data set on MCF7 it was 6.58 µM; in the data set on MDA-MB-468, 9.62 µM. Moreover, the IC50 at 96 h in data set [1] stood at 10.2 µM.

Turning to `CCC(=O)NC(n1cnc2c(Nc3ccc4c(c3)OCO4)nc(N)nc21)C(Cl)(Cl)Cl` (stereo not given), the IC50 with MDA-MB-231, with A549, in the data set with MCF7 and in the data set on MDA-MB-468 was over 20 µM each time. Moreover, in data set [1], the IC50 at 96 h is over 20 µM.
